# Laboratory results reported in ChEMBL document CHEMBL4390655, “N,N-bis-heteroaryl methylamines: Potent anti-mitotic and highly cytotoxic agents” (Eur J Med Chem, 2019).
# Activity calls are given as the source filed them. No cut-off for these calls is given here.
# How the values were obtained:
# [1] = Inhibition of sheep brain tubulin polymerization in presence of GTP by DAPI based fluorimetric method; design: species or system Ovis aries
# [2] = system: HCT-116; assay: Cytotoxicity against human HCT116 cells assessed as reduction in cell growth measured after 72 hrs by MTS assay; format: functional, cell-based
# [3] = system: MIA PaCa-2; assay: Cytotoxicity against human MIAPaCa2 cells assessed as reduction in cell growth measured after 72 hrs by MTS assay; format: functional, cell-based; conditions: MIA PaCa-2, 72 h
# [4] = system: JIMT-1; assay: Cytotoxicity against human JIMT1 cells assessed as reduction in cell growth measured after 72 hrs by MTS assay; format: functional, cell-based; conditions: JIMT-1, 72 h
# [5] = Cytotoxicity against human A2780R cells assessed as reduction in cell growth measured after 72 hrs by MTS assay; format: functional, cell-based
# [6] = system: A2780; assay: Cytotoxicity against human A2780 cells assessed as reduction in cell growth measured after 72 hrs by MTS assay; format: functional, cell-based; conditions: A2780, 72 h
# [7] = system: HCT-116; assay: Cell cycle arrest in human HCT116 cells assessed as accumulation at G2/M phase at 1 nM incubated for 24 hrs by propidium iodide staining based flow cytometry (reference value: 23%); format: functional
# [8] = system: HCT-116; assay: Cell cycle arrest in human HCT116 cells assessed as accumulation at G0/G1 phase at 5 nM incubated for 24 hrs by propidium iodide staining based flow cytometry (reference value: 37%); format: functional
# [9] = system: HUVEC; assay: Antiproliferative activity against human HUVEC assessed as growth inhibition up to 5 hrs; format: cell-based
# [10] = system: HCT-116; assay: Cell cycle arrest in human HCT116 cells assessed as accumulation at G2/M phase incubated for 24 hrs by propidium iodide staining based flow cytometry; format: functional
# [11] = system: HCT-116; assay: Cell cycle arrest in human HCT116 cells assessed as accumulation at G2/M phase at 5 nM incubated for 24 hrs by propidium iodide staining based flow cytometry (reference value: 23%); format: functional
# [12] = system: HCT-116; assay: Cell cycle arrest in human HCT116 cells assessed as accumulation at S phase at 1 nM incubated for 24 hrs by propidium iodide staining based flow cytometry (reference value: 40%); format: functional
# [13] = system: HCT-116; assay: Cell cycle arrest in human HCT116 cells assessed as accumulation at G0/G1 phase at 10 nM incubated for 24 hrs by propidium iodide staining based flow cytometry (reference value: 37%); format: functional
# [14] = system: HUVEC; assay: Antivascular activity against HUVEC assessed as reduction in capillary like tube formation by measuring disruption of cell network integrity at 10 nM measured up to 5 hrs by matrigel method relative to control; format: functional, cell-based; conditions: Homo sapiens
# [15] = system: HCT-116; assay: Cell cycle arrest in human HCT116 cells assessed as accumulation at G2/M phase at 10 nM incubated for 24 hrs by propidium iodide staining based flow cytometry (reference value: 23%); format: functional
# [16] = system: K-562R; assay: Cytotoxicity against human K562R cells assessed as reduction in cell growth measured after 72 hrs by MTS assay; format: functional, cell-based
# [17] = system: HCT-116; assay: Induction of apoptosis in human HCT116 cells assessed as caspase-3/7 activation at 0.1 to 10 nM after 24 hrs by Apo-one caspase 3/7 assay; format: functional, cell-based
# [18] = system: HCT-116; assay: Cell cycle arrest in human HCT116 cells assessed as accumulation at G0/G1 phase at 1 nM incubated for 24 hrs by propidium iodide staining based flow cytometry (reference value: 37%); format: functional
# [19] = Antiproliferative activity against HUVEC assessed as growth inhibition after 72 hrs; format: cell-based; conditions: human, HUVEC cells
# [20] = system: HCT-116; assay: Cell cycle arrest in human HCT116 cells assessed as accumulation at S phase at 10 nM incubated for 24 hrs by propidium iodide staining based flow cytometry (reference value: 40%); format: functional
# [21] = system: K562; assay: Cytotoxicity against human K562 cells assessed as reduction in cell growth measured after 72 hrs by MTS assay; format: functional, cell-based; conditions: K562, 72 h
# [22] = system: HCT-116; assay: Cell cycle arrest in human HCT116 cells assessed as accumulation at S phase at 5 nM incubated for 24 hrs by propidium iodide staining based flow cytometry (reference value: 40%); format: functional
# [23] = Homo sapiens, HCT-116, 72 h, read-out: IC50
Structure (SMILES),IC50 [1],"IC50 [2, 23]",IC50 ([1]; read-out: IC50),also measured
COc1ccc(N(C)c2cc(C)nc3ccccc23)nc1Cl,Not Active,462 nM,–,–
CN(c1ccc2c(c1)c1ccccc1n2C)c1ccnc2ccccc12,Not Active,943 nM,–,–
Cc1cc(N(C)c2ccc3c(c2)c2cc(N)ccc2n3C)c2ccccc2n1,–,2.88 nM,2760 nM,–
C=C(c1cc(N(C)c2cc(C)nc3ccccc23)ccc1OC)c1cc(C)nc2ccccc12,Not Active,969 nM,–,–
CN(c1ccc2c(c1)c1ccccc1n2C)c1cc(C#N)nc2ccccc12,–,12 nM,1400 nM,–
CN(c1ccc2c(c1)c1ccccc1n2C)c1cc(C(F)(F)F)nc2ccccc12,Not Active,847 nM,–,–
Cc1cc(N(C)c2ccc3c(c2)OCCO3)c2ccccc2n1,–,20.7 nM,4080 nM,–
Cc1cc(N(C)c2ccc3c(c2)c2cc([N+](=O)[O-])ccc2n3C)c2ccccc2n1,Not Active,–,–,IC50 ([2]; hct-116): Not Active
CN(c1ccc2c(ccn2C)c1)c1cc(C(F)(F)F)nc2ccccc12,–,3.28 nM,2500 nM,–
Cc1cc(N(C)c2ccc3c(c2)c2ccccc2n3Cc2ccccc2)c2ccccc2n1,Not Active,–,–,IC50 ([2]; hct-116): Not Active
COc1ccc(N(C)c2cc(C)nc3ccccc23)nc1O,Not Active,205 nM,–,–
Cc1nc(N(C)c2ccc3c(c2)c2ccccc2n3C)c2ccccc2n1,–,2.4 nM,3800 nM,–
Cc1cc(N(C)c2ccc3[nH]c4ccccc4c3c2)c2ccccc2n1,Not Active,–,–,IC50 ([2]; hct-116): Not Active
Cc1cc(N(C)c2ccc3c(c2)c2ccccc2n3C)c2cccc(O)c2n1,–,50.6 nM,1240 nM,–
Cc1cc(N(C)c2ccc3c(c2)c2ccccc2n3C)c2cc([N+](=O)[O-])ccc2n1,Not Active,623 nM,–,–
CN(c1ccc2c(c1)c1ccccc1n2C)c1cc(Cl)nc2ccccc12,–,16.7 nM,1160 nM,–
COc1ccc2c(ccn2-c2cc(C)nc3ccccc23)c1,Not Active,482 nM,–,–
Cn1c2ccccc2c2cc([N+](C)(C)c3ccnc4ccccc34)ccc21.[I-],Not Active,891 nM,–,–
Cc1cc(N(C)c2ccc3c(c2)c2cc(C(C)O)ccc2n3C)c2ccccc2n1 (stereo not given),Not Active,219 nM,–,–
COc1ccc(N(C)c2cc(C)nc3ccccc23)nc1N,–,1.73 nM,900 nM,–
CN(c1ccc2c(c1)c1ccccc1n2C)c1nc(Cl)nc2ccccc12,–,1.06 nM,3140 nM,–
C=C(c1ccc(OC)c(O)c1)c1cc(OC)c(OC)c(OC)c1,–,1.8 nM,1000 nM,IC50 [3]: 5 nM; IC50 [4]: 3.08 nM; IC50 [5]: 2.66 nM; IC50 [6]: 3.01 nM
Cc1cc(N(C)c2ccc3c(c2)c2ccccc2n3C)ccn1,Not Active,879 nM,–,–
Cc1cc(N(C)c2ccc3oc4ccccc4c3c2)c2ccccc2n1,Not Active,844 nM,–,–
CCn1c2ccccc2c2cc(N(C)c3cc(C)nc4ccccc34)ccc21,Not Active,186 nM,–,–
Cc1cc(N(C)c2ccc3c(c2)c2ccccc2n3C)c2cc(N)ccc2n1,–,24.5 nM,5760 nM,–
COc1cccc2c(N(C)c3ccc4c(c3)c3ccccc3n4C)cc(C)nc12,–,21.6 nM,1480 nM,–
Cc1cc(N(C)c2ccc3c(c2)c2ccccc2n3C)c2ccccc2n1,–,0.07 nM,1130 nM,Activity [7]: 25%; Activity [8]: 8%; Activity [9]: Non-Toxic; Activity [10]: Dose-dependent effect; Activity [11]: 80%; Activity [12]: 40%; Activity [13]: 0%; Activity [14]: Active; Activity [15]: 82%; IC50 [16]: 0.28 nM; Activity [17]: Dose-dependent effect; Activity [18]: 35%; GI50 at 72 h [19]: 3.23 nM; Activity [20]: 18%; IC50 [3]: 0.47 nM; IC50 [4]: 0.36 nM; IC50 [21]: 0.6 nM; IC50 [5]: 0.54 nM; IC50 [6]: 0.53 nM; Activity [22]: 12%
Cc1cc(N(C)c2ccc3c(ccn3C)c2)c2ccccc2n1,–,2 nM,1340 nM,–
CN(c1ccc2c(ccn2C)c1)c1nc(Cl)nc2ccccc12,–,0.2 nM,1190 nM,IC50 [16]: 1.77 nM; IC50 [3]: 0.62 nM; IC50 [4]: 0.52 nM; IC50 [21]: 0.77 nM; IC50 [5]: 2.34 nM; IC50 [6]: 0.24 nM
